Assay results from US6924302B2, “Substituted triazole diamine derivatives as kinase inhibitors” (Ortho McNeil Pharmaceutical, Inc., priority 2000, dated 2005).
Read-outs that look alike come from different tables or passages of the source.

Tests used:
[1] = target: T1, PDGF-R (platelet derived growth factor receptor) beta subunit kinase domain (Homo sapiens, UniProt P09619); test: Kinase Selectivity Assay PDGF-R; type: biochemical
T1 construct: nucleotides 1874-3507 of the human PDGF-R beta subunit kinase domain; polyhistidine (N)
T1 sequence (P09619 564-1106): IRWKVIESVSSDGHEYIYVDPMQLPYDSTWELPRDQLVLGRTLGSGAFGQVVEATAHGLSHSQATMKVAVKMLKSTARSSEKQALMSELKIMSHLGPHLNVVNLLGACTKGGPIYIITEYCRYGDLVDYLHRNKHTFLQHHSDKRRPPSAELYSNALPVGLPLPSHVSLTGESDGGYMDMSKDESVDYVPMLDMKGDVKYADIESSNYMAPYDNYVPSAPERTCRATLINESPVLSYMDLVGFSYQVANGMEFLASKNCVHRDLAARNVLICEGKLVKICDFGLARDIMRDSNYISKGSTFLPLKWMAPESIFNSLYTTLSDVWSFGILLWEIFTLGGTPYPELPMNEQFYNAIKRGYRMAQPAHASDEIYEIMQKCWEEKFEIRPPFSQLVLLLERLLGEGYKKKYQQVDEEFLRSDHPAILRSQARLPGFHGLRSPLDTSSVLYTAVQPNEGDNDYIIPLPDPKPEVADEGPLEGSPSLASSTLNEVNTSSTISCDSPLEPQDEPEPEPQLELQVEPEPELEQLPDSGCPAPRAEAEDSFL
Description: (§1) Assays to test compound inhibition of other kinases were preformed using methods that measure the amount of phosphorylation of a biotinylated peptide substrate. Biotinylated peptide substrates were selected from the literature as appropriate for the enzyme being evaluated. […] Assay conditions vary slightly for each protein kinase, for example, insulin receptor kinase requires 10 mM MnCl2 for activity and Calmodulin-dependent protein kinase requires calmodulin and 10 mM CaCl2. These assay conditions are known in the art. The reaction mixture was dispensed into the wells of a streptavidin coated Flashplate and 1 μl drug stock in 100% DMSO was added to a 100 μl reaction volume resulting in a final concentration of 1% DMSO on the reaction. Enzyme was diluted in 50 mM Tris-HCl pH=8.0, 0.1% BSA and add to each well. The reaction was incubated for one hour at 30° C. in the presence of compound. After one hour the reaction mix was aspirated from the plate and the plate was washed with PBS containing 100 mM EDTA. The plate was read on a scintillation counter to determine ^33P-γ-ATP incorporated into the immobilized peptide. Test compounds were assayed in duplicate at 8 concentrations [100 uM, 10 uM, 1 uM, 100 nM, 10 nM, 1 nM, 100 pM, 10 pM]. A maximum and minimum signal for the assay was determined on each plate. The IC50 was calculated from the dose response curve of the percent inhibition of the maximum signal in the assay according to the formula [max signal—background/test compound signal—background (100)=% inhibition] by graphing the percent inhibition against the log concentration of test compound. Known inhibitor compounds appropriate for the kinase being assayed were also included on each plate.
(§2) CDK2 in complex with cyclin A is commercially available (Upstate Biotech, Lake Placid, N.Y.). The CDK4 complex was composed of a mouse CDK4 protein and a mouse Cyclin D1 protein (The mouse CDK4 protein was genetically fused to an N-terminal Flag-epitope tag and the mouse Cyclin D1 protein was fused with an N-terminal AU-1 epitope tag. The genes encoding these proteins were transferred to commercially available baculoviral vectors. The recombinant CDK4/D1 complex was then made by co-infecting commercially available insect cells with viruses carrying these two constructs). […] ERK-1 protein (Discontinued from Calbiochem). EGFR (epidermal growth factor receptor) is purified from human A431 cell membranes (Sigma, St. Louis, Mo., Cat.# E3641).

[2] = target: T2, Casein Kinase 2 (alpha and beta subunits) (Homo sapiens, UniProt P68400); test: Kinase Selectivity Assay Casein Kinase 2; type: biochemical
T2 construct: purchased New England Biolabs 6010; host or cells: E. coli
T2 sequence (P68400 whole entry): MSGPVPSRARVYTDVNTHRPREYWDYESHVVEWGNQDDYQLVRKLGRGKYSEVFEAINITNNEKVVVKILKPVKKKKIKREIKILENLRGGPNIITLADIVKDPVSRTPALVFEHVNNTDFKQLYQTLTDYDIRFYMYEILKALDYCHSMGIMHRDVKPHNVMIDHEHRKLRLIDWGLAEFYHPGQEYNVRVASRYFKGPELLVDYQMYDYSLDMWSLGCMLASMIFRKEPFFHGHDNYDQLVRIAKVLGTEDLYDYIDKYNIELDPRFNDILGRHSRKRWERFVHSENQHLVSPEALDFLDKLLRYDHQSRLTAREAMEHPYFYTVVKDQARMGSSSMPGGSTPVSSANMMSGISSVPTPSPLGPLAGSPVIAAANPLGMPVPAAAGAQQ
T2 sequence (P67870 whole entry partner): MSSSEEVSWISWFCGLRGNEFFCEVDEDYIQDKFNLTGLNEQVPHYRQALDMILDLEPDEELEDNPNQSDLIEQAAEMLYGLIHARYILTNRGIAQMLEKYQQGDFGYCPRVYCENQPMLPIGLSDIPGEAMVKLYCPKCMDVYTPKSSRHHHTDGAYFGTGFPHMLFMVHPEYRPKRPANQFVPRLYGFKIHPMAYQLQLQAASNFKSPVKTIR
Description: as §1, §2

Insulin Receptor Kinase = Insulin Receptor Kinase (Homo sapiens, UniProt P06213); test: Kinase Selectivity Assay Insulin Receptor Kinase; type: biochemical
Chain of Insulin Receptor Kinase (P06213 980-1352): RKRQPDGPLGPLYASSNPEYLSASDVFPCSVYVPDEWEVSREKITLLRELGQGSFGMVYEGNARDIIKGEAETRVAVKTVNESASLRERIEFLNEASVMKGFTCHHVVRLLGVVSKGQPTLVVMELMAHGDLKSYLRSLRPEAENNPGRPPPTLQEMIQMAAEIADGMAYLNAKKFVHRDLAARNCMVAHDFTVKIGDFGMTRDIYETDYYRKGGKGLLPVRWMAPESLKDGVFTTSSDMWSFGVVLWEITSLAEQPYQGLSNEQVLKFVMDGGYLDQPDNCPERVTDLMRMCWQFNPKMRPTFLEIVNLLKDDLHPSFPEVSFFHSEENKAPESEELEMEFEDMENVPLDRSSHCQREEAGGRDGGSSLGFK
Description: as §1, §2

[3] = target: T3, VEGF-R (vascular endothelial growth factor receptor-2) (Rattus norvegicus, UniProt O08775); test: VEGF-R Screening Assay; type: biochemical
T3 construct: polyhistidine (6xHIS) (N)
T3 sequence (O08775 786-1343): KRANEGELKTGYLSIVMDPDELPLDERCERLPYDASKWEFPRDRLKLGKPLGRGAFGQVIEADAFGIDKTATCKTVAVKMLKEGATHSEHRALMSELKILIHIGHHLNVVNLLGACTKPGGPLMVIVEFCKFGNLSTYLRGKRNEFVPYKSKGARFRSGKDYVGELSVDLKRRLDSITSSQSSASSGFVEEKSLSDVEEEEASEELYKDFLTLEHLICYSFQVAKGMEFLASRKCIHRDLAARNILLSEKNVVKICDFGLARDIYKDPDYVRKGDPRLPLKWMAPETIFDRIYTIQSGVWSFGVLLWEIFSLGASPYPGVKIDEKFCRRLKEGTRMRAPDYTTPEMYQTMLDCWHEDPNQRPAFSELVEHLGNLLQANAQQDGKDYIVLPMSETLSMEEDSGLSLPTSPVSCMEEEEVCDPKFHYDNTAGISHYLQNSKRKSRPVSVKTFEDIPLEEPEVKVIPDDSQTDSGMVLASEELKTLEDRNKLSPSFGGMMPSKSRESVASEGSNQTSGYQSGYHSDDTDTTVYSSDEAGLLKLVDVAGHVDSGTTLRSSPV

[4] = target: T4, Calmodulin Kinase (calmodulin-dependent protein kinase 2) (Rattus norvegicus, UniProt P11275); test: Kinase Selectivity Assay Calmodulin Kinase; type: biochemical
T4 construct: a truncated version of the alpha subunit of the rat protein; purchased New England Biolabs 6060; host or cells: insect cells
Description: as §1, §2

[5] = target: T5, Glycogen Synthase Kinase-3 (beta isoform) (Oryctolagus cuniculus, UniProt G1T8E2); test: Kinase Selectivity Assay Glycogen Synthase Kinase-3; type: biochemical, rabbit
T5 construct: purchased New England Biolabs 6040; host or cells: E. coli
T5 sequence (G1T8E2 1-432): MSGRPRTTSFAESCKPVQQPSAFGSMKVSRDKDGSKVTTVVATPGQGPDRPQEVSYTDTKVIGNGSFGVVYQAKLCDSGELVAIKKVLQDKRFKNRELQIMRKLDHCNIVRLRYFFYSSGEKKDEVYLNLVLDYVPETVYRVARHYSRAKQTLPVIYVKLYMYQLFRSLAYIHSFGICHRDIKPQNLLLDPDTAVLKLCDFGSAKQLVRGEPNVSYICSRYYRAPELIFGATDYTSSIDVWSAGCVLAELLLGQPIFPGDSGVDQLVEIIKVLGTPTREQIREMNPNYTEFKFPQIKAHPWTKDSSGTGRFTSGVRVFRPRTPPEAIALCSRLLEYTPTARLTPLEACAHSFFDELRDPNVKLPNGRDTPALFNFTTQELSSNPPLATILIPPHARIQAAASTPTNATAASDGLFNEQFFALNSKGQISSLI
Description: as §1, §2

[6] = target: T6, MAP Kinase (ERK-2 isoform) (Rattus norvegicus, UniProt P63086); test: Kinase Selectivity Assay MAP Kinase (ERK-2); type: biochemical
T6 construct: polyhistidine (N); host or cells: E. coli
T6 sequence (P63086 whole entry, canonical isoform): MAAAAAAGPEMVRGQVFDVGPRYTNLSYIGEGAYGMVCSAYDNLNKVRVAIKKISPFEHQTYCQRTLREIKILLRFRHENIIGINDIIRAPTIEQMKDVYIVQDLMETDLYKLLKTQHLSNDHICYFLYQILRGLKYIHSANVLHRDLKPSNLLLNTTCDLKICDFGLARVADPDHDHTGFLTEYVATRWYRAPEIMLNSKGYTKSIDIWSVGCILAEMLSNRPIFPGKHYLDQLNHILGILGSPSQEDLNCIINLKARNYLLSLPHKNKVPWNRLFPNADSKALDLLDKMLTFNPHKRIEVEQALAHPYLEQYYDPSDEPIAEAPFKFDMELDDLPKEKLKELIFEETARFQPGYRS
Description: as §1, §2

CDK1:Cyclin-B = target: T7, CDK1:Cyclin-B (Homo sapiens, UniProt P06493); test: CDK1 Screening Assay; type: biochemical
T7 construct: purchased New England Biolabs 6020; host or cells: insect cells
T7 sequence (P06493 whole entry): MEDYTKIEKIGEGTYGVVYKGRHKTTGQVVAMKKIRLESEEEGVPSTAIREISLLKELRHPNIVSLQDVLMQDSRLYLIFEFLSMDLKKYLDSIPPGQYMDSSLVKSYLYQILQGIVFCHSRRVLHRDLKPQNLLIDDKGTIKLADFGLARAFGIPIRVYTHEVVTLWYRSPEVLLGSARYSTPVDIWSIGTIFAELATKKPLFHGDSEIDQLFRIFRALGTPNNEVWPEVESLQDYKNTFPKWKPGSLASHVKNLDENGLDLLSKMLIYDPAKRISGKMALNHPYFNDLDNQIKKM
T7 sequence (P14635 whole entry partner): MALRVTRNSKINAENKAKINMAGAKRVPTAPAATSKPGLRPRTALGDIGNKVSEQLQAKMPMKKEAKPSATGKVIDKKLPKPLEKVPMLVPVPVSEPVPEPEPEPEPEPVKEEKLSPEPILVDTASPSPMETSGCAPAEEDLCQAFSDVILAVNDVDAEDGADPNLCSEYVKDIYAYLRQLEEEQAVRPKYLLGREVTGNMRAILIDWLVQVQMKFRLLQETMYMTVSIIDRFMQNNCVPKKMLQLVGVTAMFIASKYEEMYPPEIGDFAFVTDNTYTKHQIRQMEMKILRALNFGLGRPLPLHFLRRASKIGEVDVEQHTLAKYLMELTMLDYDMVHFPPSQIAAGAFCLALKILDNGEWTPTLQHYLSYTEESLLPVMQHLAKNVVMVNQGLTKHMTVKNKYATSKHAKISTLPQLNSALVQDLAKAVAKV
Summary of the method: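 Human CDK1:cyclin-B (30 ng/well) with biotinylated histone-H1 peptide and ^33P-γ-ATP, 1 h at 30° C, 1% DMSO, on streptavidin FlashPlate; incorporation read by scintillation.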

Protein Kinase A = target: T8, Protein Kinase A (Bos taurus, UniProt P00517); test: Kinase Selectivity Assay Protein Kinase A; type: biochemical, bovine
T8 construct: purified from bovine heart; purchased Upstate Biotech 14-114; host or cells: bovine heart
Description: as §1, §2

[7] = target: T9, HER2 (human epidermal growth factor receptor-2) (Homo sapiens, UniProt P04626); test: Kinase Selectivity Assay HER2; type: biochemical
T9 construct: begins at amino acid 676 followed by the remainder of the HER2 cytoplasmic domain; polyhistidine (N)
T9 sequence (P04626 676-1255 limits assumed): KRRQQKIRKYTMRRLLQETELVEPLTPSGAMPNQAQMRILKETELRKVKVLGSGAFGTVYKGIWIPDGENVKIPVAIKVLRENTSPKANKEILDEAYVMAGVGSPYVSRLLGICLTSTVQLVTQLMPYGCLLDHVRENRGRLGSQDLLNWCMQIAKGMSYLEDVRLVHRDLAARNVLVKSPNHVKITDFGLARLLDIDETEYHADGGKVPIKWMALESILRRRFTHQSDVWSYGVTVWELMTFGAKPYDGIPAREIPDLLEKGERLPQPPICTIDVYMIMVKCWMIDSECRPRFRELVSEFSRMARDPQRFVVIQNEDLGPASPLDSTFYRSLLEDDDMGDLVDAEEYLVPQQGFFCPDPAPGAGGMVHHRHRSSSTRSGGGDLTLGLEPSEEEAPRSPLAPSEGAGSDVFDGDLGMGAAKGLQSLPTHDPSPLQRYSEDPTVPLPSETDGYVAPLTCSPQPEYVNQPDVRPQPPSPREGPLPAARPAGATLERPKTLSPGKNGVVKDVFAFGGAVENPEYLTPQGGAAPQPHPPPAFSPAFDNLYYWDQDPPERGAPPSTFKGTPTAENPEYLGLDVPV
Description: as §1, §2

[8] = target: T10, CDK2 in complex with cyclin A (Homo sapiens, UniProt P24941); test: Kinase Selectivity Assay CDK2; type: biochemical
T10 construct: purchased Upstate Biotech
Description: as §1, §2

[9] = target: T11, Casein Kinase 1 (CK1 delta isoform) (Rattus norvegicus, UniProt Q06486); test: Kinase Selectivity Assay Casein Kinase 1; type: biochemical; conditions: Tables 2a-2k, read-out: Caseine Kinase 1 IC50
T11 construct: a truncation at amino acid 318 of the C-terminal portion of the rat CK1 delta isoform; purchased New England Biolabs 6030; host or cells: E. coli
T11 sequence (Q06486 1-317): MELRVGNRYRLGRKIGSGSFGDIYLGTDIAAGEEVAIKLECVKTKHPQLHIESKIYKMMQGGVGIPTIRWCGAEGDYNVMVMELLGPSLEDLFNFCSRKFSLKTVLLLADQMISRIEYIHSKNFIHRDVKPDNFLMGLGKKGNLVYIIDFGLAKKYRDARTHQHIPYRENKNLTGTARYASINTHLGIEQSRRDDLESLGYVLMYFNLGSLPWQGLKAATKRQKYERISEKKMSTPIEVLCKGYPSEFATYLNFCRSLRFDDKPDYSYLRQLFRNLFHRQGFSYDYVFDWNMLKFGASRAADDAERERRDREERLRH
Description: as §1, §2

[10] = Kinase Selectivity, Tables 2a-2k, read-out: VEGF-R IC50
[11] = Kinase Selectivity, Tables 2a-2k, read-out: GSK-3 IC50
[12] = Kinase Selectivity, Tables 2a-2k, read-out: CDK1 IC50
[13] = Kinase Selectivity, Tables 2a-2k
[14] = Kinase Selectivity, Tables 2a-2k, read-out: HER2 Kinase IC50

SMILES | IC50 [3, 10] [nM] | IC50 [5, 11] [nM] | IC50 (CDK1:Cyclin-B; [12]) [nM] | IC50 [8, 13] [nM] | IC50 [7, 14] [nM] | IC50 ([3]; Table 1, read-out: VEGF-R IC50) [nM] | IC50 (CDK1:Cyclin-B; Table 1, read-out: CDK1 IC50) [nM] | IC50 ([8]; Table 1) [nM] | IC50 ([7]; Table 1, read-out: HER2 IC50) [nM] | also measured
Cc1cc(C)c(C(=O)n2nc(Nc3ccc(S(N)(=O)=O)cc3)nc2N)s1 [Cpd 33, 4-[[5-amino-1-[(3,5-dimethyl-2-thienyl)carbonyl]-1H-1,2,4-triazol-3-yl]amino]-benzenesulfonamide] | 23 |  |  |  |  |  |  |  |  | IC50 [1]: 39 nM; IC50 [2]: > 10000 nM; IC50 (Insulin Receptor Kinase): 316 nM; IC50 [3]: 23.4 nM; IC50 [4]: > 10000 nM; IC50 [5]: 4 nM; IC50 [6]: > 10000 nM; IC50 (CDK1:Cyclin-B; CDK1 IC50, Kinase Selectivity, Tables 2a-2k): 3 nM; IC50 (CDK1:Cyclin-B; CDK1 IC50, Table 1): 3.2 nM; IC50 (Protein Kinase A): > 100000 nM; IC50 [7]: 5 nM
Nc1nc(Nc2ccccc2)nn1C(=O)c1c(F)cccc1F [Cpd 61, 1-(2,6-Difluorobenzoyl)-N^3-phenyl-1H-1,2,4-triazole-3,5-diamine] | 72 | 55 | 180 | 49 | 820 |  |  |  |  | 
Nc1nc(Nc2ccccc2)nn1C(=O)c1ccccc1 [Cpd 62, 1-benzoyl-N^3-phenyl-1H-1,2,4-triazole-3,5-diamine] | 64 | 73 | 530 | 290 | 410 |  |  |  |  | 
Nc1nc(Nc2cccc(Cl)c2)nn1C(=O)c1c(F)cccc1F [Cpd 63, N^3-(3-chlorophenyl)-1-(2,6-difluorobenzoyl)-1H-1,2,4-triazole-3,5-diamine] | 320 | 73 | 79 | 56 | 150 |  |  |  |  | 
Nc1nc(Nc2cccc(Cl)c2)nn1C(=O)c1ccccc1 [Cpd 64, 1-benzoyl-N^3-(3-chlorophenyl)-1H-1,2,4-triazole-3,5-diamine] | 51 | 21 | 210 | 200 | 76 |  |  |  |  | 
Nc1nc(Nc2ccccc2)nn1C(=O)Nc1ccccc1 [Cpd 65, 5-amino-N-phenyl-3-(phenylamino)-1H-1,2,4-triazole-1-carboxamide] | 180 | 100 | 670 | 410 | 790 |  |  |  |  | 
Nc1nc(Nc2ccc(S(N)(=O)=O)cc2)nn1C(=O)Nc1c(F)cccc1F [Cpd 67, 5-amino-3-[[4-(aminosulfonyl)phenyl]amino]-N-(2,6-difluorophenyl)-1H-1,2,4-triazole-1-carboxamide] |  |  |  |  |  | 38 | 3.7 | 1.4 | 52 | 
CCNS(=O)(=O)c1ccc(Nc2nc(N)n(C(=O)c3c(F)cccc3F)n2)cc1 [Cpd 76, 4-[[5-amino-1-(2,6-difluorobenzoyl)-1H-1,2,4-triazol-3-yl]amino]-N-ethyl-benzenesulfonamide] |  |  |  |  |  | 530 | 12 | 4.4 | ~1000 | 
Nc1nc(Nc2ccc(S(N)(=O)=O)cc2)nn1C(=O)c1c(F)ccc(Cl)c1F [Cpd 78, 4-[[5-amino-1-(3-chloro-2,6-difluorobenzoyl)-1H-1,2,4-triazol-3-yl]amino]-benzenesulfonamide] |  |  |  |  |  | 420 | 6.6 | 1.7 | 780 | 
CNc1nc(N)n(C(=O)c2sccc2C)n1 [Cpd 79, N^3-methyl-1-[(3-methyl-2-thienyl)carbonyl]-1H-1,2,4-triazole-3,5-diamine] |  |  |  |  |  | > 100000 | > 100000 | > 100000 | > 100000 | 
CN(C)CCNS(=O)(=O)c1ccc(Nc2nc(N)n(C(=O)c3c(F)cccc3F)n2)cc1 [Cpd 106] |  |  |  |  |  | 559 | 125 | 1 | 37200 | 
Nc1nc(Nc2ccccc2)n(C(=O)c2c(F)cccc2F)n1 [Cpd 124, 1-(2,6-difluorobenzoyl)-N^5-phenyl-1H-1,2,4-triazole-3,5-diamine] | 4800 | 3000 | 2200 | 1700 | 820 |  |  |  |  | 
Nc1nc(Nc2ccccc2)n(C(=O)c2ccccc2)n1 [Cpd 125, 1-benzoyl-N^5-phenyl-1H-1,2,4-triazole-3,5-diamine] | > 100000 | > 100000 | > 100000 | 7300 | > 100000 |  |  |  |  | 
Nc1nc(Nc2ccc(S(N)(=O)=O)cc2)n(C(=S)Nc2c(F)cccc2F)n1 [Cpd 128, 3-amino-5-[[4-(aminosulfonyl)phenyl]amino]-N-(2,6-difluorophenyl)-1H-1,2,4-triazole-1-carbothioamide] | 118 | 94 |  |  |  | 118 |  | 3.3 |  | IC50 ([1]; Kinase Selectivity, Tables 2a-2k, read-out: PDGF-R kinase IC50): 1910 nM; IC50 ([2]; Kinase Selectivity, Tables 2a-2k, read-out: Caseine Kinase 2 IC50): > 100000 nM; IC50 (Insulin Receptor Kinase; Kinase Selectivity, Tables 2a-2k, read-out: Insulin R Kinase IC50): 2650 nM; IC50 ([4]; Kinase Selectivity, Tables 2a-2k, read-out: Calmodulin Kinase 2 IC50): 13200 nM; IC50 ([6]; Kinase Selectivity, Tables 2a-2k, read-out: ERK 2 IC50): 2070 nM; IC50 [9]: 8970 nM; IC50 (Protein Kinase A; Kinase Selectivity, Tables 2a-2k, read-out: PKA IC50): > 100000 nM
